In the SangsterLogP compilation one finds logD data, which are given here for 15 molecules.

Broadly, the logD is the decadic logarithm of the distribution of all forms, ionised or not, between an organic phase and buffer at a given pH. A higher logD goes with higher lipophilicity.

A short description of this data set: method code SF-AS, from PMID: 4559156. The note with it: pH 7.4.
For `O=[N+]([O-])c1cnc(/N=C2/OCCN2CCO)s1`, the logD stood at 0.43. The figure for `CC(=O)OCCN1CCS/C1=N/c1ncc([N+](=O)[O-])s1` is 1.88; for `CC1CN(C)C(=Nc2ncc([N+](=O)[O-])s2)N1` (stereo not given) it is 1.95; for `CN1CCN(C)C1=Nc1ncc([N+](=O)[O-])s1` it is 0.92. The figure for `O=[N+]([O-])c1cnc(NC2=NCCN2)s1` is 1.38; for `CC1N=C(Nc2ncc([N+](=O)[O-])s2)OC1(C)C` (stereo not given) it is 1.88.

`O=[N+]([O-])c1cnc(N=C2NCCO2)s1` displayed a pH-dependent lipophilicity (logD) of 0.57. As to `CCN1CCNC1=Nc1ncc([N+](=O)[O-])s1`, the logD amounted to 2.28. `CN1CC(O)CN(C)C1=Nc1ncc([N+](=O)[O-])s1` (stereo not given) displayed a logD of 0.16. In turn, `CC1(C)NC(=Nc2ncc([N+](=O)[O-])s2)OC1(C)C` had a logD of 2.4.

`O=[N+]([O-])c1cnc(N=C2NCCN2CCO)s1` gave a logD of 1.23.

In the case of `CN1CCN=C1Nc1ncc([N+](=O)[O-])s1`, the logD was 1.8. The figure for `O=[N+]([O-])c1cnc(N=C2NCC(O)CN2)s1` (stereo not given) is 0.74; for `O=[N+]([O-])c1cnc(/N=C2/SCCN2CCO)s1` it is 1.28; for `CC1CNC(=Nc2ncc([N+](=O)[O-])s2)N1C` (stereo not given) it is 2.02.
